Test results from US4275066A, “Antireproductive tricyclic ortho-fused nitrogen containing compounds” (Gruppo Lepetit S.p.A., priority 1979, dated 1981).

What was measured:
[1] = system: hamsters; assay: antifertility activity by oral route, hamsters; format: in vivo, hamster; settings: Mesocricetus auratus, p.o.
Description: (§1) Representative experiments for assessing antifertility activity were carried out with female Syrian golden hamsters weighing 100 to 130 g. The animals were mated and the presence of sperm in the vagina was taken as evidence of mating. The day sperm was detected was considered day one of pregnancy, since in our laboratories and those of other investigators 90 to 100% of animals that mate as evidenced by vaginal sperm are pregnant.
(§2) Pregnancy was later confirmed at the time of autopsy by presence of fetuses or implantation sites in the uterus. Even if an animal aborts the fetus, implantation scars still remain as evidence that the animal has been pregnant. […] The animals were autopsied on day 14 of pregnancy and the uteri were examined for evidence of pregnancy (implantation sites, fetal resorptions or live fetuses), hemorrhage, and evidence of abnormalities of the uterus, placenta or fetuses. A compound was considered to be active if there was a reduction of live fetuses in at least 60% of the treated animals and the presence of implantation sites proves the animal to have been pregnant.
The compounds were then studied for dose-activity relationships and the corresponding ED50 values i.e., 100% activity (absence of live fetuses) in 50% of the animals, were also determined. The following Table reports the ED50 values of some representative compounds of the invention:
Favorable results were also obtained by administering the compounds of the invention by oral route. The experiments for assessing this property were carried out on hamsters following the same procedures as above, with the obvious exception that the compounds were administered orally instead of subcutaneously.

[2] = system: female Syrian golden hamsters; assay: post-coital-post-implantation antifertility activity, s.c., hamsters; format: in vivo, Syrian golden hamster; settings: Mesocricetus auratus, sc, sesame oil containing 20% benzyl benzoate, daily for 5 days (days 4-8 of pregnancy), autopsy day 14, read-out: ED50 (100% activity, absence of live fetuses, in 50% of the animals)
Description: as §1, §2
The compounds were then studied for dose-activity relationships and the corresponding ED50 values i.e., 100% activity (absence of live fetuses) in 50% of the animals, were also determined. The following Table reports the ED50 values of some representative compounds of the invention: […]

[3] = system: female Sprague-Dawley rats; assay: anti-reproductive activity, s.c., rats; format: in vivo, Sprague-Dawley rat; settings: Rattus norvegicus, sc, five consecutive days from day 6 of pregnancy, autopsy day 16
Description: The same criteria and experimental conditions as above were also applied when the anti-reproductive activity of the compounds of the invention was investigated in other animal species such as, for instance, rats, dogs, monkeys and baboons.
In representative experiments, female Sprague-Dawley rats weighing from 200 to 300 g. were treated subcutaneously with a dosage of 20 mg/kg of the compound to be tested, dissolved in sesame oil containing 20% of benzyl benzoate, for five consecutive days starting from day 6 of pregnancy.

[4] = system: hamsters; assay: antifertility activity by intravaginal route, hamsters; format: in vivo, hamster; settings: Mesocricetus auratus

Compound	ED50 [1]	ED50 [2]	ED50 [3]	ED50 [4]
c1ccc(-c2ccc(-c3nc4n(n3)CCc3ccccc3-4)cc2)cc1 [Example 3, 2-[(1,1'-Biphenyl)-4-yl]-5,6-dihydro-1,2,4-triazolo[5,1-a]isoquinoline]	0.5 mg/kg	0.05 mg/kg		
c1ccc(-c2ccc(-c3nc4c5ccccc5ccn4n3)cc2)cc1 [Example 1, 2-[(1,1'-Biphenyl)-4-yl]-1,2,4-triazolo[5,1-a]isoquinoline]	0.2 mg/kg	0.015 mg/kg	0.55 mg/kg	~0.2 mg/kg
c1ccc(-c2ccc(-c3nc4n(n3)Cc3ccccc3-4)cc2)cc1 [Example 4, 2-[(1,1'-Biphenyl)-4-yl]-5H-1,2,4-triazolo[5,1-a]isoindole]		0.7 mg/kg		
c1ccc(-c2ccc(-c3cn4ccc5ccccc5c4n3)cc2)cc1 [Example 6, 2-[(1,1'-Biphenyl)-4-yl]-imidazo[2,1-a]isoquinoline]	0.3 mg/kg	0.02 mg/kg		
